Measured values reported in PubChem BioAssay (NCI).
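Briefly, cells in 96-well plates were exposed to five compound concentrations for 48 h, and endpoints were estimated by linear interpolation. TGI denotes the concentration required for complete inhibition of growth.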

What was measured:
Assay in all cases: NCI-60 cell line screen, 48 h
COLO 205 colon = test system: COLO 205 colon
EKVX NSCLC = test system: EKVX NSCLC
HCT-15 colon = test system: HCT-15 colon
HOP-62 NSCLC = test system: HOP-62 NSCLC
HOP-92 NSCLC = test system: HOP-92 NSCLC
HT29 colon = test system: HT29 colon
K-562 leukemia = test system: K-562 leukemia
LOX IMVI melanoma = test system: LOX IMVI melanoma
M14 melanoma = test system: M14 melanoma
MALME-3M melanoma = test system: MALME-3M melanoma
MDA-MB-435 = test system: MDA-MB-435
NCI-H522 lung = test system: NCI-H522 lung
NCI/ADR-RES ovarian = test system: NCI/ADR-RES ovarian
SK-MEL-2 melanoma = test system: SK-MEL-2 melanoma
SNB-19 CNS = test system: SNB-19 CNS
SNB-75 CNS = test system: SNB-75 CNS
SW-620 colon = test system: SW-620 colon
UO-31 renal = test system: UO-31 renal
SR leukemia = test system: SR leukemia

SMILES | TGI (COLO 205 colon) | TGI (EKVX NSCLC) | TGI (HCT-15 colon) | TGI (HOP-62 NSCLC) | TGI (HOP-92 NSCLC) | TGI (HT29 colon) | TGI (K-562 leukemia) | TGI (LOX IMVI melanoma) | TGI (M14 melanoma) | TGI (MALME-3M melanoma) | TGI (MDA-MB-435) | TGI (NCI-H522 lung) | TGI (NCI/ADR-RES ovarian) | TGI (SK-MEL-2 melanoma) | TGI (SNB-19 CNS) | TGI (SNB-75 CNS) | TGI (SW-620 colon) | TGI (UO-31 renal) | TGI (SR leukemia)
O=c1oc2ccc3ccccc3c2cc1-c1cn2c(n1)sc1ccccc12 | > 100 µM | > 100 µM | > 100 µM | > 100 µM | > 100 µM | > 100 µM | > 100 µM | > 100 µM | > 100 µM | > 100 µM | > 100 µM | > 100 µM | > 100 µM | > 100 µM | > 100 µM | > 100 µM | > 100 µM | > 100 µM | –
O=C(Oc1c(Br)cc(Br)cc1C(=O)Oc1ccccc1)C(=O)Oc1c(Br)cc(Br)cc1C(=O)Oc1ccccc1 | 51.8 µM | > 100 µM | 75.3 µM | 45.1 µM | 38.4 µM | > 100 µM | 55.7 µM | – | > 100 µM | 59.2 µM | > 100 µM | 32.6 µM | > 100 µM | 93.3 µM | 64.8 µM | – | 51.1 µM | 49.7 µM | 56.1 µM
COc1ccc(NS(=O)c2c(C)cc(C)cc2C)cc1 (stereo not drawn) | > 100 µM | > 100 µM | > 100 µM | > 100 µM | – | > 100 µM | > 100 µM | > 100 µM | > 100 µM | 49 µM | > 100 µM | > 100 µM | > 100 µM | > 100 µM | > 100 µM | – | > 100 µM | 61.1 µM | > 100 µM
CC(=O)OCC1OC(OC(C)=O)C(Nc2ncc(-c3ccc(C)cc3)s2)C(OC(C)=O)C1OC(C)=O (stereo not drawn) | 38 µM | 27.6 µM | 60 µM | 42.2 µM | – | 56.1 µM | 65.8 µM | 32 µM | 33.4 µM | 41.5 µM | 30.3 µM | 34.3 µM | 76.8 µM | 59.7 µM | 52.9 µM | 37.6 µM | 45.4 µM | 27.9 µM | > 100 µM
Cn1nc(-c2ccccc2)c2c(-c3ccccc3)c3cc(Cl)ccc3nc21 | – | > 100 µM | > 22.9 µM | > 100 µM | > 25 µM | > 100 µM | > 100 µM | > 100 µM | > 100 µM | > 100 µM | > 100 µM | > 100 µM | > 25.7 µM | > 100 µM | > 100 µM | > 100 µM | > 100 µM | > 100 µM | > 100 µM
COc1ccccc1NC(=O)C(=O)Cc1cnc2ccccc2n1 | > 100 µM | – | > 100 µM | – | > 100 µM | > 100 µM | > 100 µM | > 100 µM | > 100 µM | – | > 100 µM | – | > 100 µM | > 100 µM | > 100 µM | > 100 µM | > 100 µM | > 100 µM | > 100 µM
O=C1Nc2ccccc2/C1=C\c1c(-c2ccccc2)nc2n1CCS2 | 81.3 µM | 52 µM | 52.3 µM | > 100 µM | > 100 µM | 39.9 µM | > 100 µM | 38.6 µM | 87.9 µM | 74.1 µM | 39.8 µM | 51.7 µM | 68.1 µM | 28.5 µM | 91 µM | 42.8 µM | > 100 µM | 80.6 µM | –
O=C(O)c1cccc(OCCOc2cccc(C(=O)O)c2[N+](=O)[O-])c1[N+](=O)[O-] | > 100 µM | > 100 µM | > 100 µM | > 100 µM | > 100 µM | > 100 µM | – | > 100 µM | > 100 µM | > 100 µM | > 100 µM | > 100 µM | > 100 µM | > 100 µM | > 100 µM | > 100 µM | > 100 µM | > 100 µM | > 100 µM
Fc1cccc(C2SCc3nc4cc5ccccc5cc4n32)c1 (stereo not drawn) | > 100 µM | > 100 µM | > 100 µM | > 100 µM | > 100 µM | > 100 µM | > 100 µM | > 100 µM | > 100 µM | > 100 µM | > 100 µM | – | > 100 µM | > 100 µM | > 100 µM | > 100 µM | > 100 µM | > 100 µM | > 100 µM
CCOC(=O)C1(C#N)C(C#N)(C#N)C1(C#N)C#N | > 100 µM | > 100 µM | > 100 µM | > 100 µM | > 100 µM | > 100 µM | > 100 µM | > 100 µM | > 100 µM | > 100 µM | > 100 µM | > 100 µM | > 100 µM | > 100 µM | > 100 µM | – | > 100 µM | > 100 µM | > 100 µM
COC(=O)CC(CNC(=O)OCc1ccccc1)OCc1ccc(OC)cc1 (stereo not drawn) | > 100 µM | > 100 µM | > 100 µM | – | > 100 µM | – | > 100 µM | > 100 µM | > 100 µM | > 100 µM | > 100 µM | > 100 µM | > 100 µM | > 100 µM | > 100 µM | > 100 µM | > 100 µM | > 100 µM | > 100 µM
CN1CC=C(c2cccn2C)CC1 | > 100 µM | > 100 µM | > 100 µM | > 100 µM | – | > 100 µM | > 100 µM | > 100 µM | > 100 µM | > 100 µM | > 100 µM | > 100 µM | > 100 µM | > 100 µM | > 100 µM | > 100 µM | > 100 µM | > 100 µM | > 100 µM
CC[C@@H]1CC[C@@H]2[C@H](CC[C@]3(C)[C@@H](OC(C)=O)CC[C@@H]23)[C@H]1C(=O)OC | 29.5 µM | 58.6 µM | 49.5 µM | 53.7 µM | 37.3 µM | 67.2 µM | 40.1 µM | 35.6 µM | 42.3 µM | 33.3 µM | 41.9 µM | 47.8 µM | 68.5 µM | 39.2 µM | 72.4 µM | 69 µM | 48.8 µM | > 100 µM | –
